According to PubChem BioAssay AID687000 (Broad Institute, 2013):
“And” between values parts separate entries of the source, which are not always exact repeats. Equal entries are not always repeated. The source made the active and inactive calls.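 How the source made its calls: active means fitted dose curve reaches 40% lysis signal rise at or below the highest valid concentration tested for that sample; inconclusive means flat fit between 30% and 70%, or poor curve fit; inactive means signal falls, stays flat within 30%, or no crossing.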

Tested on: C. neoformans lysis, adenylate kinase release luminescence, 4 h
Assay: C. neoformans lysis by adenylate kinase leakage – AK release luminescence, cherry-picks, dose response (AID 687000)

SMILES | AC40
C[C@H]1CN([C@@H](C)CO)C(=O)c2ccccc2-c2ccccc2CO[C@H]1CN(C)S(=O)(=O)c1cccc(C#N)c1 | > 15 µM (inactive)
O=C(NCCN1CCCCC1)[C@H]1N[C@H]2c3ccc(-c4ccncc4)c(=O)n3C[C@H]2[C@@H]1CO | 12.7 µM
O=C(NC(=S)NCC1COc2ccccc2O1)c1ccc(Cl)cc1 (centres undefined) | 3.44 µM
COc1ccc(N2CCN(C(=O)Cc3cccs3)CC2)cc1 | > 15 µM (inactive)
Cc1noc(C)c1NC(=O)N(C)C[C@H]1OCCCC[C@H](C)Oc2ccc(NC(=O)NC(C)C)cc2C(=O)N([C@@H](C)CO)C[C@@H]1C | > 15 µM (inactive)
CCOC(=O)NC(=S)Nc1ccc(C(C)(C)C)cc1Br | 3.16 µM
COc1cccc(S(=O)(=O)N(C)C[C@@H]2OCc3ccccc3-c3ccccc3C(=O)N([C@@H](C)CO)C[C@@H]2C)c1 | > 15 µM (inactive)
Cc1ccc(NC(=O)N2CCCC2C(=O)Nc2c(C)cc(C)cc2C)cc1 (centres undefined) | > 15 µM (inactive)
COC(=O)C1=C(C)N(Cc2ccc(F)cc2)C(=S)NC1c1ccc(F)cc1 (centres undefined) | 6.96 µM
C[C@H](CO)N1C[C@H](C)[C@H](CN(C)C(=O)Nc2cccc3ccccc23)Oc2ccc(NC(=O)Cc3ccccc3)cc2CC1=O | > 15 µM (inactive)
C[C@H]1CN([C@@H](C)CO)C(=O)Cc2cc(NS(C)(=O)=O)ccc2O[C@@H]1CN(C)Cc1ccc(Cl)c(Cl)c1 | > 15 µM (inactive)
COC(=O)C1=C(C)N(Cc2ccc(Br)cc2)C(=S)NC1c1ccccc1 (centres undefined) | 2.1 µM
S=C(Nc1ccc(Cl)cc1Cl)Nc1ccccc1Oc1ccccc1 | 3.3 µM
COc1ccc(C(=O)NC(=S)Nc2ccccc2N2CCOCC2)cc1[N+](=O)[O-] | > 15 µM (inactive)
CC(C)NC(=O)N(C)C[C@H]1OCCCC[C@H](C)Oc2ccc(NC(=O)c3ccccc3)cc2C(=O)N([C@@H](C)CO)C[C@@H]1C | > 15 µM (inactive)
O=C(NC(=S)Nc1ccccc1N1CCCC1)c1ccc([N+](=O)[O-])cc1 | 2.09 µM
Cc1c(C(=O)NC(=S)Nc2ccccc2N2CCCC2)cccc1[N+](=O)[O-] | > 15 µM (inactive)
Cc1cc(C)c(NC(=O)C2CCCN2C(=O)NC2CCCCC2)c(C)c1 (centres undefined) | 10.4 µM
COc1cc(OC)c(N(C)C(=O)c2cn(C)c(=O)c3cc(OC)c(OC)cc23)cc1Cl | > 15 µM (inactive)
C[C@@H]1CN([C@H](C)CO)S(=O)(=O)c2ccc(C#C[C@@H](C)O)cc2O[C@@H]1CN(C)Cc1ccncc1 | > 15 µM (inactive)
C[C@@H]1CN([C@H](C)CO)C(=O)c2cc(C3=CCCCC3)cnc2O[C@H]1CN(C)C(=O)Cc1cccnc1 | > 15 µM (inactive)
CCc1nc(N2CCCCC2C)c2oc3ccccc3c2n1 (centres undefined) | 1.65 µM

SMILES | AC40
O=C(CC1CC1)N1[C@@H]2CN(S(=O)(=O)c3ccccc3)c3ccccc3[C@@H]2[C@@H]1CO | > 16 µM (inactive)
COC(=O)C1=C(C)N(Cc2ccc(F)cc2)C(=S)NC1c1cccc(Cl)c1 (centres undefined) | 2.41 µM and 3.17 µM
COC(=O)C1=C(C)N(Cc2ccccc2)C(=S)NC1c1cccc(Br)c1 (centres undefined) | 3.56 µM and > 15 µM (inactive)
C[C@@H]1CCCCO[C@@H](CN(C)C(=O)Nc2cccc3ccccc23)[C@@H](C)CN([C@H](C)CO)C(=O)c2cc(NS(=O)(=O)c3ccccc3)ccc2O1 | 14.2 µM
COCC(=O)NC[C@H]1N[C@H](CO)[C@H]1c1ccc(C2=CCCC2)cc1 | > 15 µM (inactive)
C[C@@H]1CN([C@@H](C)CO)C(=O)Cc2cc(NC(=O)c3ccncc3)ccc2O[C@H]1CN(C)Cc1ccncc1 | > 15 µM (inactive)
COC(=O)C1=C(C)N(Cc2ccc(Cl)cc2)C(=S)NC1c1ccc(OC)cc1 (centres undefined) | 11.8 µM
Cc1cc(C)c(NC(=O)C2CCCN2CCC(C)C)c(C)c1 (centres undefined) | > 15 µM (inactive)
O=C(CN(c1ccc(F)cc1)S(=O)(=O)c1ccccc1)N1CCOCC1 | > 15 µM (inactive)
Cc1noc(C)c1S(=O)(=O)Nc1ccc2c(c1)CC(=O)N([C@H](C)CO)C[C@H](C)[C@@H](CN(C)S(=O)(=O)c1cn(C)cn1)O2 | > 15 µM (inactive)
COC(=O)C1=C(C)N(Cc2ccccc2)C(=S)N[C@H]1c1cccc(F)c1 | 11.7 µM
CCN1C(=S)N[C@@H](c2ccccc2)C(C(=O)OC)=C1C | > 15 µM (inactive)
COC(=O)C1=C(C)N(Cc2ccccc2)C(=S)N[C@H]1c1cccc(C(F)(F)F)c1 | > 15 µM (inactive)
COC(=O)C1=C(C)N(CC(C)C)C(=S)NC1c1ccc(F)cc1 (centres undefined) | 3.52 µM
O=C(NC1CCCCC1)N[C@H]1C=C[C@@H](CC(=O)N2CCOCC2)O[C@@H]1CO | > 15 µM (inactive)
CC(C)CC1(C)N=C(c2ccccc2)C(=S)N1 (centres undefined) | 11.2 µM
COc1ccccc1/C=N/NC(=S)NCc1ccco1 | > 15 µM (inactive)
Cc1ccc(CSc2ncnc3c2cnn3-c2ccc(C)cc2)cc1 | > 15 µM (inactive)
O=C(N[C@H]1CC[C@H](CCn2cc(-c3ccccn3)nn2)O[C@H]1CO)c1ccc(F)cc1 | > 15 µM (inactive)
COC(=O)C1=C(C)N(Cc2ccccc2)C(=S)NC1c1cccc(OC)c1 (centres undefined) | > 15 µM (inactive) and > 16 µM (inactive)
CCOc1ccc(CNC(=S)NCc2ccc(OCC)cc2)cc1 | > 15 µM (inactive)
Cc1cccc(C)c1NC(=O)CN(C)C(=O)C1CCCCC1 | > 15 µM (inactive)

SMILES | AC40
NC(=S)N/N=C/c1ccc(-c2cc(Cl)ccc2Cl)o1 | 0.644 µM
COc1ccccc1C#Cc1ccc2c(c1)O[C@H](CN(C)C(C)=O)[C@H](C)CN([C@@H](C)CO)S2(=O)=O | > 15 µM (inactive)
O=C(Nc1ccccc1N1CCOCC1)c1cccc([N+](=O)[O-])c1 | > 7.5 µM (inactive)
COc1cccc(NC(=S)N2CCC(Cc3ccccc3)CC2)c1 | 3.35 µM
C[C@@H]1CN([C@@H](C)CO)C(=O)c2cc(NC(=O)C3CC3)ccc2O[C@H]1CN(C)CC1CCCCC1 | > 15 µM (inactive)
COC(=O)C1=C(C)N(Cc2ccc(Cl)cc2)C(=S)NC1c1ccc(F)cc1 (centres undefined) | 2.23 µM and 3.73 µM
O=C(NC(=S)Nc1cccc(F)c1)c1cccc([N+](=O)[O-])c1 | 3.02 µM
O=C(NC(=S)Nc1ccc(Br)cc1)C1CCC1 | 1.05 µM
Cc1cccc2sc(N3CCN(C(=O)c4cccs4)CC3)nc12 | > 15 µM (inactive)
O=C(NC(=S)Nc1ccccc1N1CCOCC1)c1cccc([N+](=O)[O-])c1 | 5.69 µM
CCCNC(C)C(=O)Nc1ccccc1C (centres undefined) | > 15 µM (inactive)
C[C@@H]1CN([C@@H](C)CO)C(=O)CCCn2nncc2CO[C@H]1CN(C)C(=O)Oc1cccc2ccccc12 | > 15 µM (inactive)
Cc1ccc2nc(C)c3c(c2c1)OC(C(C)(Cl)Br)C3 (centres undefined) | > 15 µM (inactive)
COc1ccccc1NC(=S)NCc1ccccc1Cl | 7.43 µM
COC(=O)C1=C(C)N(CC(C)C)C(=S)NC1c1ccc(-c2ccccc2)cc1 (centres undefined) | > 15 µM (inactive) and 1.4 µM
C[C@H]1CN([C@@H](C)CO)C(=O)c2cccc(NS(=O)(=O)c3ccc(Cl)cc3)c2O[C@@H]1CN(C)CC1CC1 | 3.75 µM
CC(C)c1ccccc1NC(=S)NN(Cc1ccccc1)c1ccccc1 | > 15 µM (inactive)
C[C@H]1CN([C@@H](C)CO)C(=O)c2cc(NC(=O)Nc3ccc(F)cc3)ccc2O[C@@H]1CN(C)S(C)(=O)=O | > 15 µM (inactive)
CC(C)NC(=O)Nc1ccc2c(c1)CC(=O)N([C@@H](C)CO)C[C@@H](C)[C@H](CN(C)C(=O)Nc1ccc3c(c1)OCO3)O2 | > 15 µM (inactive)
COc1cc2c(C(=O)N(C)c3cc(Cl)ccc3OC)cn(C)c(=O)c2cc1OC | > 15 µM (inactive)
